Test results from US20060292243A1, “Arsenic compounds for the treatment of the arsenic-sensitive blast-cell related diseases” (priority 2005, published 2006).
Values joined by “and” are separate entries in the source; they are usually repeats but may differ in a detail not shown here. Equal values may be shown once.

How the values were obtained:
[1] = test system: OVA-specific IgE; assay: OVA-specific IgE in serum of OVA-immunized mice; type: in vivo, BALB/c mice
Method: (§1) BALB/c mice (female, 6-8 weeks) were immunized with ovalbumin (OVA) at day 0, 14, 21 and 28. 38 days later, animals were injected with arsenic trioxide (ATO) i.p. for 7 days and antigen challenges with OVA were performed at day 42, 43, 44. At day 45, the airway enhanced pause (PenH) values were measured. 48 hours after the last antigen challenges, the mice were sacrificed, the trachea cannulated, and bronchoalveolar lavage (BAL) was performed by four repeated lavages with balanced salt solution (HBSS) injected into the lungs via the trachea. Total cell counts were performed with a hemocytometer after staining with trypan blue, and then cytospins were prepared, and a differential count of 300 cells per slide was performed. To obtain the absolute number of each leukocyte subtype in the lavage, the percentage of each cell type was multiplied by the total number of cells that were recovered from the bronchoalveolar lavage fluid (BALF). Eotaxin in the BALF was measured via ELISA. Four groups of mice were treated as Table 3.1.
Group A mice were challenged by PBS only and then treated by PBS, too. Group B mice were immunized by ovalbumin and then treated by PBS only. […]
After antigen challenges, mice serum were prepared and OVA-specific IgE values in serum were detected for evidence of immunization.

[2] = test system: white blood cells in BALF; assay: Differential white blood cell count in BALF, OVA-immunized mice; type: in vivo, BALB/c mice; conditions: for Lymphocyte concentration in BALF / Neutrophil concentration in BALF: mean; for Eosinophil concentration in BALF / Macrophage concentration in BALF: mean ± SD
Method: as §1
Group A mice were challenged by PBS only and then treated by PBS, too. Group B mice were immunized by ovalbumin and then treated by PBS only. Group C mice were immunized by ovalbumin and then treated by arsenic trioxide in a dosage of 2.5 mg per kg for mice. Group D mice were challenged by ovalbumin as group B and C and then treated by arsenic trioxide in a dosage of 5 mg/kg.
The white blood cells in BALF were counted and differentiated. Every kind of white cell was increased in immunized groups when in comparison with the non-immunized group.

[3] = test system: Fibroblasts; assay: DAPI staining of apoptotic bodies in fibroblasts; type: cell-based, human; conditions: 24 hours
Method: Fibroblasts were treated with different concentrations of ATO for 24 hours, cells were fixed and the apoptotic bodies were detected by DAPI staining.

[4] = test system: cultured human fibroblasts; assay: Cell cycle effect on cultured human fibroblasts (MTT, flowcytometry, western blot, promoter luciferase); type: cell-based; conditions: 1 to 10 μM, 24 hr
Text: Arsenic trioxide has been approved for APL (acute promyelocytic leukemia) therapy, and though much work remains to be done on the application of arsenic trioxide and the mechanism of arsenic toxicity is not fully understood, several recent works pointed out the involvement of oxidative stress in arsenic-induced DNA damage in living cells may cause cell cycle arrest.

[5] = test system: ssDNA; assay: Serum IgG anti-ssDNA ELISA in SLE model mice; type: in vivo, NZB/NZW mice
Method: (§2) In vivo studies on the activity of arsenic compound were carried out by using an experimental animal model of human Systemic Lupus Erythematosus. NZB/NZW denotes the mouse strain that spontaneously develops an autoimmune syndrome having notable similarities to human Systemic Lupus Erythematosus. Autoimmune disease in NZB/NZW mice is characterized by antinuclear antibodies (IgG) production about 4 months of age, and glomerulonephritis with proteinuria is developed when at 9 months of age, and that is the major cause of death (uremia).
(§3) At 24 weeks of age, mice (3 groups) were treated 3 times per week with PBS (Group I as positive control), 2.5 mg/kg of As2O3 (Group II), or 5 mg/kg of As2O3 (Group III) administered intraperitoneally. The treatment was stopped at 28 weeks of age. Mice were observed daily for clinical signs of disease and for mortality and were bled every 4 weeks for determination of anti-DNA antibody production.
Standard ELISA assay to measure the serum levels of anti-DNA antibodies was performed as follows. The plates were coated 10 μg/mL mBSA 4° C. overnight before coating dsDNA and ssDNA diluted with PBS to concentration of 7.5 μg/mL. ssDNA was prepared by boiling for 20 min then placed on ice immediately for 20 min. After overnight incubation at 4° C., the plates were washed and blocked with gelatin-PBS solution. The serum was diluted and then added to the appropriate wells, which were then incubated at 37° C. for 45 min. Horseradish peroxidase-comjugated anti-mouse γ-chain-specific antibodies were added. After incubation at 37° C. for 50 min, then room temperature for 10 min, 2,2′-azino-bisC3-ethylbenzthiazoline-6-sulphonic acid (ABTS) solution was used as substrate and the absorbance was measured at 405 nm. The level of anti-DNA IgG is presented as ELISA units (EU/ml) compared with mAb 10F10. The OD value generated by 74 ng/ml of 10F10 Ab was defined as 1 EU/ml for anti-DNA IgG. The level of anti-nucleosome IgG was calculated as EU by comparison with 10F10 Ab. The absorbance value generated by 231 ng/ml of 10F10 Ab was defined as 1 EU/ml of anti-nucleosome IgG.

[6] = test system: T lymphocytes (CD3+); assay: Caspase-3 (Phiphilux) apoptosis within gated PBMC subsets; type: cell-based
Text: 3. The detection of apoptosis within different subsets of PBMCs by the combination of mAb-fluorescein tandem staining and the treatment of Phiphilux through flowcytometry. Phiphilux is a substrate of caspase-3, composed of a specific oligo-peptide with its sequence subjected to functional caspase-3 cutting and, at each end of the peptide, is covalently coupled to two identical fluorophores.
Thus, the conclusion is that T lymphocytes are more sensitive to arsenic trioxide according the flow data.

[7] = test system: NZB/NZW mice; assay: Severe glomerulonephritis (proteinuria by urine dipstick) in SLE model mice; type: in vivo; conditions: for Mice with severe glomerulonephritis (%): proteinuria more than 1 g/L (2+)
Method: as §2, §3
Urine protein levels were determined by colorimetric analysis using dipsticks (Multistix®, Bayer). Severe glomerulonephritis was defined as proteinuria more than 1 g/L (2+) by urine dipstick.

## arsenic trioxide
[1]; Group C: OVA, ATO 2.5 mg/kg i.p. for 7 days
  OVA-specific IgE (SI.) in serum, Mean: 2.20 SI.
[1]; Group D: OVA, ATO 5 mg/kg i.p. for 7 days
  OVA-specific IgE (SI.) in serum, Mean: 1.96 SI.
[2]; Group C: OVA, ATO 2.5 mg/kg
  Lymphocyte concentration in BALF: 37.0 ×1000 cells/ml
  Neutrophil concentration in BALF: 200.7 ×1000 cells/ml
  Eosinophil concentration in BALF: 28.6 ± 13.0 ×1000 cells/ml
  Macrophage concentration in BALF: 621.0 ± 199.6 ×1000 cells/ml
[2]; Group D: OVA, ATO 5 mg/kg
  Lymphocyte concentration in BALF: 28.7 ×1000 cells/ml
  Neutrophil concentration in BALF: 244.0 ×1000 cells/ml
  Eosinophil concentration in BALF: 33.2 ± 12.5 ×1000 cells/ml
  Macrophage concentration in BALF: 499.1 ± 131.6 ×1000 cells/ml
[2]; group C and D vs group B
  effect on eosinophil number in BALF: diminish significantly the eosinophil number
[3]; 1 μM
  apoptotic bodies by DAPI staining: no obvious apoptosis
[3]; 2.5 μM
  apoptotic bodies by DAPI staining: no obvious apoptosis
[3]; 5 μM
  apoptotic bodies by DAPI staining: obvious apoptotic bodies present
[3]; 10 μM
  apoptotic bodies by DAPI staining: both apoptosis and necrosis
[4]
  effect on cell cycle of fibroblasts: cell cycle arrest especially in G2/M
[5]; 2.5 mg/kg i.p. 3 times per week, before treatment
  IgG Anti-ssDNA titer: 0.155 ELISA Unit
[5]; 2.5 mg/kg, 4 weeks after treatment
  IgG Anti-ssDNA titer: 0.347 ELISA Unit
[5]; 2.5 mg/kg, 8 weeks after treatment
  IgG Anti-ssDNA titer: 0.400 ELISA Unit
[5]; 2.5 mg/kg, 12 weeks after treatment
  IgG Anti-ssDNA titer: 0.105 ELISA Unit
[5]; 5 mg/kg i.p. 3 times per week, before treatment
  IgG Anti-ssDNA titer: 0.176 ELISA Unit
[5]; 5 mg/kg, 4 weeks after treatment
  IgG Anti-ssDNA titer: 0.303 ELISA Unit
[5]; 5 mg/kg, 8 weeks after treatment
  IgG Anti-ssDNA titer: 0.296 ELISA Unit
[5]; 5 mg/kg, 12 weeks after treatment
  IgG Anti-ssDNA titer: 0.201 ELISA Unit
[6]; 1 μM
  Levels of T cell apoptosis (%) after 48 hr treatment: 36.1%
[6]; 5 μM
  Levels of T cell apoptosis (%) after 48 hr treatment: 96% and 96.2%
[7]; 2.5 mg/kg ATO and 5 mg/kg ATO
  onset of severe proteinuria in comparison with untreated animals: marked delay in the onset of severe proteinuria
[7]; 2.5 mg/kg, 37 weeks
  Mice with severe glomerulonephritis (%): 16.67%
[7]; 2.5 mg/kg, 40 weeks
  Mice with severe glomerulonephritis (%): 40%
[7]; 5 mg/kg, 37 weeks
  Mice with severe glomerulonephritis (%): 25%
[7]; 5 mg/kg, 40 weeks
  Mice with severe glomerulonephritis (%): 25%
